How the values were obtained:
[1] = test system: mdx mice; settings: same mdx mice as discovery set; prednisolone 5 mg/kg, vamorolone 15 mg/kg; cited from earlier work
[2] = test system: miRNAs in diaphragm muscle of mdx mice; experiment: qRT-PCR of individual miRNAs in diaphragm, validation set (4-month treatment, treadmill-run mdx mice); format: in vivo, mouse; settings: 6 months of age, prednisolone 5 mg/kg, vamorolone 45 mg/kg; for expression of the other seven inflammatory miRNAs: P≤0.05
Excerpt: Archival muscle samples (diaphragm) from two separate preclinical studies were obtained, with each trial showing a significant benefit from both prednisolone and vamorolone drug treatments (23). Prednisolone was used because it is the active form of prednisone, the current DMD standard of care. The first, “discovery set” of diaphragm muscles was from a prophylactic trial design where 2-week old (postnatal day 15) mdx or wild type control mice received oral dosing for 6 weeks with vehicle (cherry syrup), prednisolone (5 mg/kg), or vamorolone (15 mg/kg) as previously reported (23). The second, “validation set” of diaphragm muscles was from an extended trial in older mice where mdx or wild type mice were subjected to treadmill running to unmask mild phenotypes. Mice in this validation set were treated with either vehicle, prednisolone (5 mg/kg) or vamorolone (45 mg/kg) for four months beginning at two months of age (23). At the endpoint of each trial, diaphragm muscles were harvested and frozen in liquid nitrogen-cooled isopentane.
Specific miRNAs were quantified in the validation set of samples using individual TaqMan assays specific for each miRNA (ThermoFisher; Carlsbad, Calif.) according to the manufacturer's protocol. Assay IDs used include 000468, 001346, 002455, 001280, 000528, 002352, 000464, 002509, and 002248. Total RNA was converted to cDNA using multiplexed RT primers and High Capacity cDNA Reverse Transcription Kit (ThermoFisher; Carlsbad, Calif.). The cDNA was pre-amplified using TaqMan PreAmp Master Mix (ThermoFisher; Carlsbad, Calif.). The miRNAs were then quantified using individual TaqMan assays on an ABI QuantStudio 7 real time PCR machine (Applied Biosystems; Foster City, Calif.).
In the discovery set experiments, levels of each miRNA were quantified in TaqMan low-density arrays using ThermoFisher Cloud software with the Relative Quantification Application (ThermoFisher; Carlsbad, Calif.) tool. Data was analyzed by ANOVA with post-hoc comparison of each group to the mdx vehicle-treated group. […] A P-value of P≤0.05 was set as the significance threshold, without adjustment for multiple comparisons. To reduce false-positive discovery in this setting, an evidence-based approach was used to identify efficacy associated miRNAs where 1) results from the multiple groups were cross-referenced, and 2) all candidate miRNAs identified in this discovery set were then assayed in a separate validation set of mice. For the validation set experiments, levels of each individual miRNA were assayed in samples from a second, independent preclinical trial in adult mdx mice. Data from individual TaqMan Assays was quantified using QuantStudio Real-Time PCR version 1.3 software (Applied Biosystems; Foster City, Calif.). […]

SMILES | grip strength, muscle pathology and diaphragm inflammation [1] | steroid side effects (stunted growth, immunosuppression, bone loss) [1] | response of miR-301a to drug treatment [2] | expression of the other seven inflammatory miRNAs [2]
C[C@]12C=CC(=O)C=C1CC[C@@H]1[C@@H]2[C@@H](O)C[C@@]2(C)[C@H]1CC[C@]2(O)C(=O)CO [prednisolone] | successfully improved grip strength, muscle pathology, and diaphragm inflammation | caused traditional steroid side effects of stunted growth, immunosuppression, and bone loss | did not respond to drug treatment | significant decrease towards healthy wild type levels
C[C@@H]1C[C@H]2[C@@H]3CCC4=CC(=O)C=C[C@]4(C)C3=CC[C@]2(C)[C@@]1(O)C(=O)CO [vamorolone] | successfully improved grip strength, muscle pathology, and diaphragm inflammation | successfully avoided these side effects | did not respond to drug treatment | significant decrease towards healthy wild type levels

From patent US12281304B2, “Compositions and methods for treating and preventing muscular disorders and dystrophies, steroid side effects, and inflammation” (Children's National Medical Center, priority 2018, dated 2025)
